Assay results: patent publication US10155004B2, “17-hydroxy-17-pentafluoroethyl-estra-4,9(10)-dien-11-aryl derivatives, method of production thereof and use thereof for the treatment of diseases” (BAYER INTELLECTUAL PROPERTY GMBH, priority 2009, dated 2018)

Tests used:
[1] = test system: cardiovascular system; assay: Action on the cardiovascular system (incl. ECG) of anaesthetized beagle dogs; type: in vivo
Method: EXAMPLE 20 INVESTIGATION OF THE ACTION ON THE CARDIOVASCULAR SYSTEM (INCL. ECG) OF ANAESTHETIZED BEAGLE DOGS
(11β,17β)-17-Hydroxy-11-[4-(methylsulphonyl)phenyl]-17-(pentafluoroethy)estra-4,9-dien-3-one, dissolved in a mixture of PEG 400 and HP-β-CD (60% PEG 400, 40% HP-β-CD 30%), was administered intravenously to anaesthetized female beagle dogs. The body weight of the dogs was >9 kg. 3 dogs were treated per group and additionally 3 dogs in the control group. 0.1; 0.33 and 1 mg/kg of the substance was administered in 3 consecutive infusions, in each case over a period of 30 minutes. The maximum amount of vehicle was 0.4 ml per kg for 30 minutes. Blood samples were taken from the animals at various time points. The highest plasma level (average for all 3 animals) was 1650 ng/ml at the end of the third infusion.

[2] = test system: rodents and non-rodents; conditions: in vivo
[3] = test system: pregnant rats; assay: Abortion test on female rats (termination of early pregnancy); type: in vivo, rat; conditions: d5-d7 p.c., autopsy d9 p.c.
Method: EXAMPLE 17 ABORTION TEST ON FEMALE RATS
The action of progesterone and of the progesterone receptor is a fundamental precondition for successful pregnancy or gestation in mammals. The progesterone-antagonistic action of the compounds according to the invention was tested on pregnant rats (6 rats per group) on day 5 to 7 post coitum with conventional housing and feeding conditions.
After successful hand mating, the pregnant animals (presence of sperm in the vaginal smear on day 1 of pregnancy=d1 p.c.) were randomized and divided into the treatment group and the control group. The animals then each received subcutaneously or orally 0.15; 0.5; 1.5 or 5 mg/kg of the test compound or 1.0 ml/kg of vehicle (benzyl benzoate/castor oil: 1+4 [v/v]) daily from day 5 to day 7 (d5-d7 p.c.).
Autopsy was carried out on day 9 (d9 p.c.). As a characteristic of progesterone receptor antagonistic action, the uterus was examined for the presence of nidation sites. Complete absence, or also the presence of pathological, haemorrhagic or otherwise abnormal nidation sites on day 9 (d9 p.c.) was assessed as abortion.

[4] = molecular target: T1, human progesterone receptor B (Homo sapiens, UniProt P06401); assay: Progesterone receptor-antagonistic action in stably transfected SK-N-MC cells, MTV-LUC reporter (PR-B); type: cell-based; conditions: antagonistic efficacy vs 0.1 nmol/l promegestone
T1 construct: expressed in transfected cells; host or cells: SK-N-MC human neuroblastoma cells, stably transfected
T1 sequence (P06401 1-933): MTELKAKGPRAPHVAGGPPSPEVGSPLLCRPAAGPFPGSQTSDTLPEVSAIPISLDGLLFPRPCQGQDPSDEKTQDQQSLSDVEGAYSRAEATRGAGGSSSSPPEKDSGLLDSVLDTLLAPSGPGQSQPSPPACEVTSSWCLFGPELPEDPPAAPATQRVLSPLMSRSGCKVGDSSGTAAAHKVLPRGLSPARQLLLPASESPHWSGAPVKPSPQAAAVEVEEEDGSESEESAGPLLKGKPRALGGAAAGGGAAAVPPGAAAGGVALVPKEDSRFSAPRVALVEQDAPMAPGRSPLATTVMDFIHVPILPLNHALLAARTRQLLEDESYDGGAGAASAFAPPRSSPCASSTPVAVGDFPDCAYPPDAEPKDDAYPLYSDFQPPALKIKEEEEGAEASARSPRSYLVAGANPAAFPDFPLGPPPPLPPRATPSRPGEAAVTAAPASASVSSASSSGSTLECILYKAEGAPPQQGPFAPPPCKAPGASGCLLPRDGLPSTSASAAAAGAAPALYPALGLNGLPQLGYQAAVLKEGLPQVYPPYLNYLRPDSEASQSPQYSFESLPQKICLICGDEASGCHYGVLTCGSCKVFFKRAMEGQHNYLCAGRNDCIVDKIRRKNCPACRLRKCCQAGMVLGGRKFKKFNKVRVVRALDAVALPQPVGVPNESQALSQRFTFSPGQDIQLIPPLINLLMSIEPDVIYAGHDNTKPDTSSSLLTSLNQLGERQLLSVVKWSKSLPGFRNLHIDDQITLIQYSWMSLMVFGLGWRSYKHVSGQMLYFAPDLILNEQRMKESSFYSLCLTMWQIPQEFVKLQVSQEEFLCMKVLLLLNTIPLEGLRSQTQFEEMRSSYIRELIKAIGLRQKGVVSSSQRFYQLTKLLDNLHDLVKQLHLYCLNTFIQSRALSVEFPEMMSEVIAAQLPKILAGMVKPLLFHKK
Method: EXAMPLE 16 PROGESTERONE RECEPTOR-ANTAGONISTIC ACTION IN STABLE TRANSFECTANTS OF HUMAN NEUROBLASTOMA CELLS (SK-N-MC CELLS) WITH THE HUMAN PROGESTERONE A OR PROGESTERONE B RECEPTOR AND AN MTV-LUC REPORTER CONSTRUCT
SK-N-MC cells (human neuroblastoma cells), which have been stably transfected with plasmids, which express the human progesterone receptor B (pRChPR-B-neo) or the human progesterone receptor A (pRChPR-A-neo) and a reporter construct (pMMTV-LUC), were incubated for 24 hours either in the absence (negative control) or in the presence of increasing amounts of the respective test compound (0.01 nmol/l, 0.1 nmol/l 1 nmol/l, 10 nmol/l, 100 nmol/l and 1 μmol/l), in order to determine the agonistic efficacy. As positive control of reporter gene induction, the cells were treated with the synthetic gestagen promegestone (0.01 nmol/l, 0.1 nmol/l, 1 nmol/l, 10 nmol/l, 100 nmol/l and 1 μmol/l). For determination of the antagonistic activity, the cells were treated with 0.1 nmol/1 promegestone and additionally with increasing amounts of the respective test compound (0.01 nmol/l, 0.1 nmol/l, 1 nmol/l, 10 nmol/l, 100 nmol/l and 1 μmol/l). The activity of the LUC reporter gene (LUC=luciferase) was determined in the cell lysates and was measured as RLU (relative light units). All measured values are given as percentage efficacy and as EC50 or IC50 concentrations.
11β-(4-Acetylphenyl)-20,20,21,21,21-pentafluoro-17-hydroxy-19-nor-17α-pregna-4,9-dien-3-one and 20,20,21,21,21-pentafluoro-17-hydroxy-11β-[4-(hydroxyacetyl)phenyl]-19-nor-17α-pregna-4,9-dien-3-one, very potent and therefore preferred examples from WO98/34947 and WO2008/058767, were tested as comparative compounds along with the test compound.

[5] = Chemical stability against temperature, light and oxidative stress; type: physicochemical; conditions: compared with analogue with alkanoyl or hydroxyalkanoyl group

With `C[C@]12C[C@H](c3ccc(S(C)(=O)=O)cc3)C3=C4CCC(=O)C=C4CC[C@H]3[C@@H]1CC[C@@]2(O)C(F)(F)C(F)(F)F` [Example 4, (11β,17β)-17-Hydroxy-11-[4-(methylsulphonyl)phenyl]-17-(pentafluoroethyl)estra-4,9-dien-3-one] the “highest plasma level (average for all 3 animals)” value ([1]; end of third infusion, i.v. 0.1, 0.33 and 1 mg/kg consecutive 30 minute infusions) was 1650 ng/mL, the “effects on the cardiovascular system (pulmonary artery pressure, systemic arterial blood pressure, heart rate, ECG)” value ([1]; i.v. 0.1, 0.33 and 1 mg/kg, in comparison with the control) was “no biologically relevant effects” and the safety profile [2] was “especially favourable safety profile”. For the same compound, the Abortion rate ([3]; daily dose 0.15 mg/kg s.c. or p.o.) was 40%, the Abortion rate ([3]; daily dose 0.5 mg/kg s.c. or p.o.) was 100% and the Abortion rate ([3]; daily dose 1.5 mg/kg s.c. or p.o.) was 100%. The Abortion rate ([3]; daily dose 5.0 mg/kg s.c. or p.o.) was 100%, the “Progesterone receptor B (PR-B) Efficacy” value [4] was 100% and the oxidation sensitivity [5] was “surprisingly low oxidation sensitivity”. For the same compound, the “stability under the influence of UV light” value [5] was “surprisingly high stability” and the “stability under thermal load” value [5] was “surprisingly high stability under thermal load”.
